Data taken from patent publication US5698547A, “Cephalosporin antibiotics” (Microcide Pharmaceuticals, Inc., priority 1995, dated 1997).
≈ marks a conversion by molar mass, not a printed value.

Assays:
[1] = test system: S. aureus Col (Meth^R) (lac^-); experiment: MIC by agar dilution, S. aureus Col (Meth^R) (lac^-); assay type: cell-based; details: Staphylococcus aureus; agar dilution; S. aureus Col (Meth^R) (lac^-); read-out: MIC
Method: The compounds of the invention were evaluated against several β-lactamresistant bacteria strains by determining the minimum inhibitory concentration (MIC, μg/ml) of each compound with respect to each strain. The MIC, the lowest concentration of antibiotic which inhibits growth of the test organism, was determined by the agar dilution method.
To determine the MIC for bacterial isolates, the test compound was incorporated in a series of two-fold dilutions into liquified Mueller-Hinton agar. Upon solidification, a number of different bacterial strains were spot inoculated with a replicating device onto the agar surface. […] The procedures used in these studies have been standardized by the National Committee for Clinical Laboratory Standards (NCCLS), as per the NCCLS publication entitled METHODS FOR DILUTION ANTIMICROBIAL SUSCEPTIBILITY TESTS (1991), which is incorporated herein by reference.
Aliquots of antimicrobial agents were prepared in phosphate buffered saline (PBS) at pH 7.2. Tween 20 or DMSO was used as a solubilizing vehicle as needed. Standard methods of vortexing, sonicating and gentle heat were used to facilitate solubilizing the test agent. Typically, the concentration of the stock solution was 10× that of the highest drug concentration tested. A 1.28 mg/mL stock solution was used with a subsequent highest working concentration of 128 μg/mL. Serial two-fold dilutions were done through ≤0.25 μg/mL. Each drug level was tested in duplicate. Two-fold drug dilutions were done in sterile 50 mL tubes with a final drug volume of 5 mL. Upon the addition of 45 mL of molten agar, a 10-fold dilution resulted. Two, 25 mL. plates were then poured into 15×150 mm square Petri plates with grids and allowed to harden.
A control plate with a reference drug, either cefotaxime, vancomycin or imipenem, was used as the positive growth control. Stock concentrations of reference antibiotics were prepared and frozen at -80° C. Upon preparation, the control plates were sealed and stored in the refrigerator for up to 1 week prior to use; however, imipenem control plates had to be prepared just prior to use. All test plates were used within 24 hours of preparation.
Satisfactory results were obtained where the inoculum contained about 10^4 colony forming units (cfu) ±0.5 logs. Starting with pure cultures of the test isolates on agar plates, a few isolated colonies were transferred to a tube of nutrient broth and allowed to grow 4-6 hours at 35°-36° C. to reach log-phase growth. Dropwise addition of the broth culture to PBS was done to match a 0.5 McFarland turbidity standard equal to 10^8 cfu/mL. This was further diluted ten-fold in PBS to reach a working inoculum concentration of 10^7 cfu/mL. When 1 μL of the working inoculum was applied to the agar surface a concentration of about 10^4 cfu per spot was obtained.
Disposable sterile 1 μL loops were used to inoculate test plates, with each isolate in a designated grid on the agar plate. An alternate method of inoculation involved the use of a replica plater, a device with 48 steel pins allowing the simultaneous inoculation of multiple isolates. After the spots had dried, the plates were incubated at 35°-36° C. for 16-20 hours. Endpoints were assessed as the minimum inhibitory concentration (MIC) of antimicrobial agent.
The novel agents of this invention are notable for their enhanced activity against S. aureus Col and Enterococci (E. faecium and E. faecalis). The S. aureus Col strain is a high-level PBP2a producer, whereas S. aureus Col 8A, its isogenic partner, lacks PBP2a. […] Thus, the compounds of the present invention are effective against PBP2a-producing bacteria.

[2] = test system: methicillin-susceptible S. aureus strain ATCC 13709; experiment: murine model for lethal bacteremic peritonitis; assay type: in vivo, female Swiss-Webster mice; details: subcutaneous, 72 h
Method: Groups of 5 female Swiss-Webster mice (Simonsen, Gilroy, Calif.) each are challenged by the intraperitoneal (IP) route with tenfold increments of a bacterial inoculum. This permits calculation of the mean lethal dose (LD50) and the LD100. For preliminary evaluation of a new antibiotic, mice are challenged IP with an LD100 titer of bacteria. In two equal doses administered at the time of bacterial challenge and 2 hours later, groups of 10 mice each are treated subcutaneously with two-fold increments of the test drug and an antibiotic of known efficacy in mice and humans (i.e., positive control). Mice are observed for 72 h. Those alive at 72 h are considered long term survivors. The total drug dose in mg/kg that protects 50% of mice in a group from death is termed the mean protective dose (PD50). PD50 s are similarly determined for several pathogens. The quantitative endpoints for the new drug are then compared with those obtained with reference antibiotics.
Six ten-fold dilutions of inoculum suspended in 0.5 mL of sterilized 7% hog gastric mucin (Sigma) are injected IP in groups of 5 mice each. A control group of 5 mice receive mucin alone. Mice are observed for 72 h. Those alive at 72 h are considered long term survivors. The mean lethal dose (LD50) and 100% lethal dose (LD100) are determined by the probit test.
For antibiotic efficacy studies, mice are challenged IP with bacterial titers that will afford an LD100 for the test strain. In two equal doses administered at the time of bacterial challenge and 2 hours later, groups of 10 mice each are treated by the subcutaneous route (SC) with twofold increments of the test antibiotic; another group is treated similarly with a reference antibiotic of known efficacy in animals and man. Drug doses can range from 0.01 to 512 mg/kg. If the drug is poorly soluble, Tween 20 or propylene glycol will be employed to solubilize the drug. Animals are observed for 72 h. The 50% protective dose (PD50) is calculated in mg/kg by the probit method. The PD50 is the same as the 50% effective dose (ED50) and the 50% curative dose (CD50). Samples of blood from the hearts of all animals that die and from half the mice that survive are cultured on brain-heart infusion agar. Animals that received a protective dosage of the test drug will be alive at 72 h, although they may appear moderately ill to very ill during the observation period. […] Most of these mice will die within 6 to 48 h. Those alive at 72 h will be considered long term survivors.
(Compound numbers correspond to those in MIC tables; data
reported for challenge with methicillin-susceptible S. aureus

Structure (SMILES) | MIC [1] [µg/mL] | other results
O=C(Cc1ccccc1)N[C@@H]1C(=O)N2C(C(=O)O)=C(Sc3ccc(F)cc3)CS[C@H]12 [Cmpd 1, (7R)-7-[(Phenylacetyl)amino]-3-(p-fluorophenylthio)-3-cephem-4-carboxylic acid] | 16 (≈ 36 µM) | 
O=C(Cc1ccccc1)N[C@@H]1C(=O)N2C(C(=O)O)=C(Sc3cccc(I)c3)CS[C@H]12 [Cmpd 2, (7R)-7-[(Phenylacetyl)amino]-3-(m-iodophenylthio)-3-cephem-4-carboxylic acid] | 2 (≈ 3.62 µM) | 
O=C(Cc1ccccc1)N[C@@H]1C(=O)N2C(C(=O)O)=C(Sc3ccc(Cl)cc3)CS[C@H]12 [Cmpd 3, (7R)-7-[(Phenylacetyl)amino]-3-(p-chlorophenylthio)-3-cephem-4-carboxylic acid] | 2 (≈ 4.34 µM) | 
O=C(Cc1ccccc1)N[C@@H]1C(=O)N2C(C(=O)O)=C(Sc3ccccc3Br)CS[C@H]12 [Cmpd 4, (7R)-7-[(Phenylacetyl)amino]-3-(o-bromophenylthio)-3-cephem-4-carboxylic acid] | 1 to 2 (≈ 1.98 to 3.96 µM) | 
O=C(Cc1ccccc1)N[C@@H]1C(=O)N2C(C(=O)O)=C(Sc3ccc(Br)cc3)CS[C@H]12 [Cmpd 5, (7R)-7-[(Phenylacetyl)amino]-3-(p-bromophenylthio)-3-cephem-4-carboxylic acid] | 2 (≈ 3.96 µM) | 
O=C(Cc1ccccc1)N[C@@H]1C(=O)N2C(C(=O)O)=C(Sc3ccc4c(c3)oc3ccccc34)CS[C@H]12 [Cmpd 7, (7R)-7-[(Phenylacetyl)amino]-3-(dibenzofuranyl-3-thio)-3-cephem-4-carboxylic acid] | 4 (≈ 7.74 µM) | 
O=C(Cc1ccccc1)N[C@@H]1C(=O)N2C(C(=O)O)=C(Sc3ccc(-c4ccccc4)cc3)CS[C@H]12 [Cmpd 8, (7R)-7-[(Phenylacetyl)amino]-3-(4-biphenylthio)-3-cephem-4-carboxylic acid] | 4 (≈ 7.96 µM) | 
O=C(Cc1ccccc1)N[C@@H]1C(=O)N2C(C(=O)O)=C(Sc3cccc(-c4ccccc4)c3)CS[C@H]12 [Cmpd 10, (7R)-7-[(Phenylacetyl)amino]-3-(3-biphenylthio)-3-cephem-4-carboxylic acid] | 8 (≈ 15.9 µM) | 
O=C(Cc1ccccc1)N[C@@H]1C(=O)N2C(C(=O)O)=C(Sc3ccc(-c4ccccc4)cc3Br)CS[C@H]12 [Cmpd 11, (7R)-7-[(Phenylacetyl)amino]-3-(2-bromo-4-biphenylthio)-3-cephem-4-carboxylic acid] | 1 (≈ 1.72 µM) | 
O=C(Cc1ccccc1)N[C@@H]1C(=O)N2C(C(=O)O)=C(Sc3ccc(-c4ccccc4)cc3F)CS[C@H]12 [Cmpd 13, (7R)-7-[(Phenylacetyl)amino]-3-(2-fluoro-4-biphenylthio)-3-cephem-4-carboxylic acid] | 4 (≈ 7.68 µM) | 
O=C(Cc1ccccc1)N[C@@H]1C(=O)N2C(C(=O)O)=C(Sc3cc(Cl)ccc3Cl)CS[C@H]12 [Cmpd 16, (7R)-7-[(Phenylacetyl)amino]-3-(2,5-dichlorophenylthio)-3-cephem-4-carboxylic acid] | < 0.5 | 
O=C(Cc1ccccc1)N[C@@H]1C(=O)N2C(C(=O)O)=C(Sc3ccc(Cl)c(Cl)c3)CS[C@H]12 [Cmpd 18, (7R)-7-[(Phenylacetyl)amino]-3-(3,4-dichlorophenylthio)-3-cephem-4-carboxylic acid] | 4 (≈ 8.07 µM) | 
COC(=O)c1ccccc1SC1=C(C(=O)O)N2C(=O)[C@@H](NC(=O)Cc3ccccc3)[C@H]2SC1 [Cmpd 19, (7R)-7-[(Phenylacetyl)amino]-3-(o-carbomethoxyphenylthio)-3-cephem-4-carboxylic acid] | 4 (≈ 8.25 µM) | 
O=C(Cc1cccs1)N[C@@H]1C(=O)N2C(C(=O)O)=C(Sc3ccccc3Br)CS[C@H]12 [Cmpd 20, (7R)-7-[(2-Thienylacetyl)amino]-3-(o-bromophenylthio)-3-cephem-4-carboxylic acid] | 0.5 (≈ 0.978 µM) | 
O=C(Cc1ccccc1)N[C@@H]1C(=O)N2C(C(=O)O)=C(Sc3cccc4oc5ccccc5c34)CS[C@H]12 [Cmpd 21, (7R)-7-[(Phenylacetyl)amino]-3-(dibenzofuranyl-1-thio)-3-cephem-4-carboxylic acid] | 1 (≈ 1.94 µM) | 
Nc1nc(/C(=N/O)C(=O)N[C@@H]2C(=O)N3C(C(=O)O)=C(Sc4ccccc4I)CS[C@H]23)cs1 [Cmpd 22, (7R)-7-[(Z)-2-(aminothiazol-4-yl)-2-(hydroxyimino)acetamido]-3-(o-iodophenylthio)-3-cephem-4-carboxylic acid] | 2 (≈ 3.31 µM) | 
N#Cc1ccc(-c2ccccc2SC2=C(C(=O)O)N3C(=O)[C@@H](NC(=O)Cc4ccccc4)[C@H]3SC2)cc1 [Cmpd 23, (7R)-7-[(Phenylacetyl)amino]-3-(2-(4-cyanophenyl)phenylthio)-3-cephem-4-carboxylic acid] | 2 (≈ 3.79 µM) | 
O=C(Cc1ccccc1)N[C@@H]1C(=O)N2C(C(=O)O)=C(Sc3cccc(Cl)c3Cl)CS[C@H]12 [Cmpd 24, (7R)-7-[(Phenylacetyl)amino]-3-(2,3-dichlorophenylthio)-3-cephem-4-carboxylic acid] | 1 (≈ 2.02 µM) | 
O=C(Cc1cccs1)N[C@@H]1C(=O)N2C(C(=O)O)=C(Sc3ccccc3I)CS[C@H]12 [Cmpd 25, (7R)-7-[(2-Thienylacetyl)amino]-3-(o-iodophenylthio)-3-cephem-4-carboxylicacid] | 1 (≈ 1.79 µM) | 
CN[C@H](CC(C)C)C(=O)N[C@H]1C(=O)N[C@@H](CC(N)=O)C(=O)N[C@H]2C(=O)N[C@H]3C(=O)N[C@H](C(=O)N[C@H](C(=O)O)c4cc(O)cc(O)c4-c4cc3ccc4O)[C@H](O)c3ccc(c(Cl)c3)Oc3cc2cc(c3O[C@@H]2O[C@H](CO)[C@@H](O)[C@H](O)[C@H]2O[C@H]2C[C@](C)(N)[C@H](O)[C@H](C)O2)Oc2ccc(cc2Cl)[C@H]1O [Vancomycin, reference compound] |  | Mortality ([2]; dose 0.625 mg/kg): 8/10; Mortality ([2]; dose 1.25 mg/kg): 6/10; Mortality ([2]; dose 2 mg/kg): 8/10; Mortality ([2]; dose 2.5 mg/kg): 5/10; Mortality ([2]; dose 4 mg/kg): 2/10; Mortality ([2]; dose 5 mg/kg): 5/10; Mortality ([2]; dose 8 mg/kg): 0/10; Mortality ([2]; dose 10 mg/kg): 2/10; Mortality ([2]; dose 16 mg/kg): 0/10; ED50 ([2]; two equal doses, S. aureus ATCC 13709 IP challenge, 4320 min): 2.79 mg/kg
